Here are results for three compounds from patent US10870647B2, “Imidazopyridine derivative, method for preparing same, and pharmaceutical composition containing same as active ingredient for preventing or treating cancer” (DAEGU-GYEONGBUK MEDICAL INNOVATION FOUNDATION, priority 2016, dated 2020).

SMILES strings stand for the structures. Like-named read-outs stand apart in the source and are kept apart here.

Experiment in all cases: Kinase selectivity, scanMAX Kinase assay panel (DiscoverX), % control at 1 uM
Holding throughout (assay type): binding

Experiment [1] deals with T1, scanMAX Kinase assay panel (Homo sapiens, UniProt Q9UM73).
T1 construct: purchased DiscoverX
T1 sequence (Q9UM73 19-1620): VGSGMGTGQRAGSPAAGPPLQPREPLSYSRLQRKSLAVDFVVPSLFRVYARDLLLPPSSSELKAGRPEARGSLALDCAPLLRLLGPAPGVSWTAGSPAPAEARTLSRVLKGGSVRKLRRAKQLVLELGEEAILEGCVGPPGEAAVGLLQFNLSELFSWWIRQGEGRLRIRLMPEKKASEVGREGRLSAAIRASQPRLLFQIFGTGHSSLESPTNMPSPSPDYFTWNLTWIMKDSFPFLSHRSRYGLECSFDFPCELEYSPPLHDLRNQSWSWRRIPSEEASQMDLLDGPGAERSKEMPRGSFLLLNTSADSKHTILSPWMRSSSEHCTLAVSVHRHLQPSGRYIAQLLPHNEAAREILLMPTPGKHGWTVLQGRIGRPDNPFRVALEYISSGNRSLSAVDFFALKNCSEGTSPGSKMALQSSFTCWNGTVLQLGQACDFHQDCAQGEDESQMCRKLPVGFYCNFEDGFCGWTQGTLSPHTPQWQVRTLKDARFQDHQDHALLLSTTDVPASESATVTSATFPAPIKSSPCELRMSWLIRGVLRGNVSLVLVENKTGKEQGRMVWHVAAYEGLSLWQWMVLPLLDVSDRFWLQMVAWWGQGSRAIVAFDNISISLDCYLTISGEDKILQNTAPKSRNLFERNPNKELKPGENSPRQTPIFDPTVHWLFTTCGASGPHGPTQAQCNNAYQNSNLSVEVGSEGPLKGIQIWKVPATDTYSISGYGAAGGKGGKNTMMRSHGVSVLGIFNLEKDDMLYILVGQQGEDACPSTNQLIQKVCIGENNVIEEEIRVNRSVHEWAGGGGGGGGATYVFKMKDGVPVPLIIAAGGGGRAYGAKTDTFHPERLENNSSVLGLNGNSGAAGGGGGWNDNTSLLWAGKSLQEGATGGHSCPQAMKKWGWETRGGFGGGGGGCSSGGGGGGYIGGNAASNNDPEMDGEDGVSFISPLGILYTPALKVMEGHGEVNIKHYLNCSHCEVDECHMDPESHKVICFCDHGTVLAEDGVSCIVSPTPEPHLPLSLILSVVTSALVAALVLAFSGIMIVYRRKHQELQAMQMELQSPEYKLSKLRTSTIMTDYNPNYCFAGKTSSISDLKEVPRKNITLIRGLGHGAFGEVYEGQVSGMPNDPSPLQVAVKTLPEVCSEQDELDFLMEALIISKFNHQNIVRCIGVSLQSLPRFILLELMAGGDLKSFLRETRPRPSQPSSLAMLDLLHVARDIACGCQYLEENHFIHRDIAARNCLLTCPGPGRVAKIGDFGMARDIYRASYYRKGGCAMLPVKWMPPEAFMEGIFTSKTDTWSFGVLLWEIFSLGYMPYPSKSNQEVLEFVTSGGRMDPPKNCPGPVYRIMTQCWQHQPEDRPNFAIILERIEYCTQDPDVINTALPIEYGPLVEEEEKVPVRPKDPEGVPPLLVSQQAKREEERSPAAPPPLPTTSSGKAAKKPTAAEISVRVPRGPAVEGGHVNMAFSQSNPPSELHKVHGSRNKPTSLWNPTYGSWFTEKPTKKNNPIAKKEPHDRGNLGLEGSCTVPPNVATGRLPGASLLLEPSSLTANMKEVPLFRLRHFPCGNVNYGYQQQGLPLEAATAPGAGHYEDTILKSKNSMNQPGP
The conditions noted are these: ALK; 1 uM; read-out: Percent Control (%). In outline: (§1)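 Binding across the scanMAX kinase panel was tested at 1 uM compound. % control = (compound − positive control)/(negative control − positive control) × 100; below 35 counted as active.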

The target of experiment [2] is T2, scanMAX Kinase assay panel (Homo sapiens, UniProt P31749).
T2 construct: purchased DiscoverX
To be noted: AKT1; 1 uM; read-out: Percent Control (%). In outline: as §1

Experiment [3] deals with T3, scanMAX Kinase assay panel (Homo sapiens, UniProt Q15303).
T3 construct: purchased DiscoverX
To be noted: ERBB4; 1 uM; read-out: Percent Control (%). In outline:
as §1

The target of experiment [4] is T4, scanMAX Kinase assay panel (Homo sapiens, UniProt Q9H422).
T4 construct: purchased DiscoverX
T4 sequence (Q9H422 whole entry): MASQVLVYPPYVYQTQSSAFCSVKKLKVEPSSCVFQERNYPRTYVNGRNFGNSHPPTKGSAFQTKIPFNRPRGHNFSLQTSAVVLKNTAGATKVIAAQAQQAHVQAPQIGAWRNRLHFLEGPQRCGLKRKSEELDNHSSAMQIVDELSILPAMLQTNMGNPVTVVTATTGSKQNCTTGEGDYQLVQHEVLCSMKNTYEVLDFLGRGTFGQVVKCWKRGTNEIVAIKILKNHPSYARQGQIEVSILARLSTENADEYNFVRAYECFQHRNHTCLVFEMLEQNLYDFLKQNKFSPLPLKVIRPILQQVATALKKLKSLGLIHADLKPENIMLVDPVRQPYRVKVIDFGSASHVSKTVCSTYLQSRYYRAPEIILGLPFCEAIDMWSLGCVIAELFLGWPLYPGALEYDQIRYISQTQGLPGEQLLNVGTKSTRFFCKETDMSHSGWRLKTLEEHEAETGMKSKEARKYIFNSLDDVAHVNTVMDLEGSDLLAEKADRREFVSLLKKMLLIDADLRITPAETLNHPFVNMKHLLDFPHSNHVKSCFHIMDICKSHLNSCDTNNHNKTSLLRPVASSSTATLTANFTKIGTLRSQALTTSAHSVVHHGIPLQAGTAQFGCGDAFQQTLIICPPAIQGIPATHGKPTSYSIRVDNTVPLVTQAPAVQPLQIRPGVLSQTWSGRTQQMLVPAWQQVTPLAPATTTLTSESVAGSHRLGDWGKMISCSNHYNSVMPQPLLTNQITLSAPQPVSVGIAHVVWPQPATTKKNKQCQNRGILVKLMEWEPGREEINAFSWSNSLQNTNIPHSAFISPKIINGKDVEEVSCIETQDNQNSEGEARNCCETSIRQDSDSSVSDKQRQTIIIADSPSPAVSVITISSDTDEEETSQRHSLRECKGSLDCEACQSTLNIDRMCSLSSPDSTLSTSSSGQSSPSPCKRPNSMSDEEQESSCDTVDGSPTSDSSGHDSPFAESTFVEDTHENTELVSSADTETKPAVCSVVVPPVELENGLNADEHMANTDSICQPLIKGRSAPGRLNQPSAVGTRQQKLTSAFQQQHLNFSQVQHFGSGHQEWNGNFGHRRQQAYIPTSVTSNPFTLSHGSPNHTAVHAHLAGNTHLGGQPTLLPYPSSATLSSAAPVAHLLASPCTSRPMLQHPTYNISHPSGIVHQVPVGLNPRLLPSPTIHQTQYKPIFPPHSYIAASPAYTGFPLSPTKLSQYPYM
The conditions noted are these: HIPK3; 1 uM; read-out: Percent Control (%). In outline:
as §1

The target of experiment [5] is T5, scanMAX Kinase assay panel (Homo sapiens, UniProt P24723).
T5 construct: purchased DiscoverX
T5 sequence (P24723 whole entry): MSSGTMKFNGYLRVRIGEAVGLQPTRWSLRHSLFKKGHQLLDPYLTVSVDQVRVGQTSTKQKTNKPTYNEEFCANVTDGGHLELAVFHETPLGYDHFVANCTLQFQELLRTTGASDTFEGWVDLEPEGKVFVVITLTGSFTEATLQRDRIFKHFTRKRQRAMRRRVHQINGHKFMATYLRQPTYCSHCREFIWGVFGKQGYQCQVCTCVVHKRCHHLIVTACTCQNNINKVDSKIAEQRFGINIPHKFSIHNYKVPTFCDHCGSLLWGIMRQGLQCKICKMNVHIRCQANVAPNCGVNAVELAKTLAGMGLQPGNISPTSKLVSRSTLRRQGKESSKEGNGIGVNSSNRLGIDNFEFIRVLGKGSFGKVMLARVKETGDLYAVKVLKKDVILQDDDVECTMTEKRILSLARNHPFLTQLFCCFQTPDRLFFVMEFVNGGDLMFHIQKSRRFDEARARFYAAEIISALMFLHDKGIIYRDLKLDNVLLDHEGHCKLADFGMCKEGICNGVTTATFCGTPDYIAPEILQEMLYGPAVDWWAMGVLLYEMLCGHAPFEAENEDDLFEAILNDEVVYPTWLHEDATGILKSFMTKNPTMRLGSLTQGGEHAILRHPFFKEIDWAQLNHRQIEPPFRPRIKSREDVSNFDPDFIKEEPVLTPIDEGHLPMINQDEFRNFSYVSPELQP
To be noted: PRKCH; 1 uM; read-out: Percent Control (%). In outline:
as §1

Experiment [6] concerns the target T6, scanMAX Kinase assay panel (Homo sapiens, UniProt O75676).
T6 construct: purchased DiscoverX
The conditions noted are these: 1 uM, read-out: Percent Control (%). In outline: as §1

Experiment [7] concerns the target T7, scanMAX Kinase assay panel (Homo sapiens, UniProt P09769).
T7 construct: purchased DiscoverX
To be noted: FGR; 1 uM; read-out: Percent Control (%). In outline: as §1

For experiment [8], the target named is T8, scanMAX Kinase assay panel (Homo sapiens, UniProt P54762).
T8 construct: purchased DiscoverX
T8 sequence (P54762 18-984): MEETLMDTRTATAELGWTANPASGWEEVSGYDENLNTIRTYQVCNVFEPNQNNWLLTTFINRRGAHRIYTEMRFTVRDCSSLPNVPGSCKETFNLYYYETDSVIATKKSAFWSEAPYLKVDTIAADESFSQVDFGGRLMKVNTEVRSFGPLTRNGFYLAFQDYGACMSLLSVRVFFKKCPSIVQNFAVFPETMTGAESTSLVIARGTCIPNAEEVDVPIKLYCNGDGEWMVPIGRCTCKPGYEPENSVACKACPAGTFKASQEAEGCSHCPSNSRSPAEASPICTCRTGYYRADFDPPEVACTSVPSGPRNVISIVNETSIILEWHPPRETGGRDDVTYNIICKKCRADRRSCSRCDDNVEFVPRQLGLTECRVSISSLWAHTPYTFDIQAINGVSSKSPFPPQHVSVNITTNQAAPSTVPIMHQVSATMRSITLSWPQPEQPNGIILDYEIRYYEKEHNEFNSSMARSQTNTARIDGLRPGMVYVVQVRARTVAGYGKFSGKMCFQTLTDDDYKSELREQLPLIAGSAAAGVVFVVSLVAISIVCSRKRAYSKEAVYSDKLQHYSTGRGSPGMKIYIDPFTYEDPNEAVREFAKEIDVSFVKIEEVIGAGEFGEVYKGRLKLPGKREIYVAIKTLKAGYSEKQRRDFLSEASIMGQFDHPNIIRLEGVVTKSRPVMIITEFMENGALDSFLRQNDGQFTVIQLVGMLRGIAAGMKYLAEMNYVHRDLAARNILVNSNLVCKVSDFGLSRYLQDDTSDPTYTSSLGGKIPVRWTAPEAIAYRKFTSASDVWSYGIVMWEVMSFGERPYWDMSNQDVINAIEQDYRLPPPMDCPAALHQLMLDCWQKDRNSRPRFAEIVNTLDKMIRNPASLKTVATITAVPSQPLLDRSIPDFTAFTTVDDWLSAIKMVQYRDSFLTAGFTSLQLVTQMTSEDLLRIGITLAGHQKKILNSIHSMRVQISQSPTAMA
To be noted: EPHB1; 1 uM; read-out: Percent Control (%). In outline:
as §1

Experiment [9] addresses T9, scanMAX Kinase assay panel (Homo sapiens, UniProt P42336, C420R).
T9 construct: purchased DiscoverX
The conditions noted are these: PIK3CA (C420R); 1 uM; read-out: Percent Control (%). In outline: as §1

In experiment [10] the target is T10, scanMAX Kinase assay panel (Homo sapiens, UniProt Q8WTQ7).
T10 construct: purchased DiscoverX
T10 sequence (Q8WTQ7 1-553): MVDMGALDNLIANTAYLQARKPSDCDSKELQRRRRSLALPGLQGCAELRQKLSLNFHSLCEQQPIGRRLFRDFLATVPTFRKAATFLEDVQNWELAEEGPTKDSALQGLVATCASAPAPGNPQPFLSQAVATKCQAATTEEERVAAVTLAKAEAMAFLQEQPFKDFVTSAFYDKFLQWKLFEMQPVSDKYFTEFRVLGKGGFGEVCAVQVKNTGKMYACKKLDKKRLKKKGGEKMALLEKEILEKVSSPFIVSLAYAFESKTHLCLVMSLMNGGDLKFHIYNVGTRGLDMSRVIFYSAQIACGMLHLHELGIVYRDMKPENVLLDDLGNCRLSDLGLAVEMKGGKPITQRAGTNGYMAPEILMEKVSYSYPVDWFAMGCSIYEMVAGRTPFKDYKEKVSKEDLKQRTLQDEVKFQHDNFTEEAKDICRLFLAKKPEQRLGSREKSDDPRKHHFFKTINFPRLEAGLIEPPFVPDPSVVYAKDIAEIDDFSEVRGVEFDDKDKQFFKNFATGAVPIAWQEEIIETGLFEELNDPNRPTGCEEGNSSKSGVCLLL
To be noted: GRK7; 1 uM; read-out: Percent Control (%). In outline:
as §1

The target of experiment [11] is T11, scanMAX Kinase assay panel (Homo sapiens, UniProt Q8TDR2).
T11 construct: purchased DiscoverX
T11 sequence (Q8TDR2 whole entry): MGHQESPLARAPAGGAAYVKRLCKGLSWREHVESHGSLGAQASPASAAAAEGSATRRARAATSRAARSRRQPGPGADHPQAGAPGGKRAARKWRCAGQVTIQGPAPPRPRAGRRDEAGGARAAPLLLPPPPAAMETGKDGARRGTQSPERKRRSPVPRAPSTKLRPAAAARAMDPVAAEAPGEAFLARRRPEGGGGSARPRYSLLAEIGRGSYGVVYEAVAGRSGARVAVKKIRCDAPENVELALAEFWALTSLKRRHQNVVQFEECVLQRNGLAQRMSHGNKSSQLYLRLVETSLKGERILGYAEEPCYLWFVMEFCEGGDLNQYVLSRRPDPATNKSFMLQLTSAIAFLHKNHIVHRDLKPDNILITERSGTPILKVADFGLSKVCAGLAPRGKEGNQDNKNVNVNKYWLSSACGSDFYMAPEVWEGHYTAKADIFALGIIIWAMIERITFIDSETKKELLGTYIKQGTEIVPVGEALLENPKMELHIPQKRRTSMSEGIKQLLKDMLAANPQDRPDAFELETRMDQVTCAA
To be noted: STK35; 1 uM; read-out: Percent Control (%). In outline:
as §1

Experiment [12] addresses T12, scanMAX Kinase assay panel (Homo sapiens, UniProt Q15759).
T12 construct: purchased DiscoverX
To be noted: p38-beta; 1 uM; read-out: Percent Control (%). In outline: as §1

Experiment [13] deals with T13, scanMAX Kinase assay panel (Homo sapiens, UniProt P30291).
T13 construct: purchased DiscoverX
To be noted: WEE1; 1 uM; read-out: Percent Control (%). In outline: as §1

T7 sequence (P09769 whole entry): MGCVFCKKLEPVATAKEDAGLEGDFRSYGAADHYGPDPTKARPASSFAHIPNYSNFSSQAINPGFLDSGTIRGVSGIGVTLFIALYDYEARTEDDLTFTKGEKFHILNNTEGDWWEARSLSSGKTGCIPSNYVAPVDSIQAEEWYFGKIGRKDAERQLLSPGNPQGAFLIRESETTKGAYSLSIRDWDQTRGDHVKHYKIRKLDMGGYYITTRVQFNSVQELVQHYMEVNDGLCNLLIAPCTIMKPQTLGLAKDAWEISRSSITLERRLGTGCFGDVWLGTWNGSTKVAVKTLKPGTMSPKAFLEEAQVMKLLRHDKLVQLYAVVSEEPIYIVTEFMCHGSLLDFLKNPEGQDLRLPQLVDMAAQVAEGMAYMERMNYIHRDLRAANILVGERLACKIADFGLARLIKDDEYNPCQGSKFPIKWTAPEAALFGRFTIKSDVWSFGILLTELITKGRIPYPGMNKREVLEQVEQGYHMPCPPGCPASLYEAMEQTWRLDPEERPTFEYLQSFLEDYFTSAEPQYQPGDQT
T12 sequence (Q15759 whole entry): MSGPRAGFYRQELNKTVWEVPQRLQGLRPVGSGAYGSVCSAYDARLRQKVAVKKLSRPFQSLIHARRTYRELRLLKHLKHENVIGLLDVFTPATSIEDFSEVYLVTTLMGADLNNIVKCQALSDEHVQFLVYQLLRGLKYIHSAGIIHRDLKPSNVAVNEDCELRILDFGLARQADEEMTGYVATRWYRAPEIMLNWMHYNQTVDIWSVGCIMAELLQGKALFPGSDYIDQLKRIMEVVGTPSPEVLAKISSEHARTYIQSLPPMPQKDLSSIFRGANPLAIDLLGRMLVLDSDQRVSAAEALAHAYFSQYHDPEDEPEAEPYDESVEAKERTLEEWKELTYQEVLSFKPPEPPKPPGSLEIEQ

As for `Cc1ccc(C(=O)Nc2ccc(CN3CCN(C)CC3)c(C(F)(F)F)c2)cc1C#Cc1cnc2c(Nc3cnn(C)c3)cccn12` [Example 1, 4-methyl-3-((8-((1-methyl-1H-pyrazol-4-yl)amino)imidazo[1,2-a]pyridin-3-yl)ethynyl)-N-(4-((4-methylpiperazin-1-yl)methyl)-3-(trifluoromethyl)phenyl)benzamide], the remaining binding at 1 µM in [1] came to 70%; in experiment [2], 80%; in experiment [3], 0%; in experiment [4], 54%; in experiment [5], 100%; in [6] (RPS6KA4 (Kin.Dom.1-N-terminal)) it was 31%. Besides, the remaining binding at 1 µM in experiment [6] (RPS6KA4 (Kin.Dom.2-C-terminal)) is 94%; in [7] it was 0%; in experiment [8], 0%; in experiment [9], 97%; in experiment [10] it was 81%; in [11], 33%. The remaining binding at 1 µM was found to be 0% in experiment [12] and 92% in [13].
`Cc1cn(-c2cc(NC(=O)c3ccc(C)c(C#Cc4cnc5c(Nc6cnn(C)c6)cccn45)c3)cc(C(F)(F)F)c2)cn1` [Example 12, 4-methyl-N-(3-(4-methyl-1H-imidazol-1-yl)-5-(trifluoromethyl)phenyl)-3-((8-((1-methyl-1H-pyrazol-4-yl)amino)imidazo[1,2-a]pyridin-3-yl)ethynyl)benzamide]: the remaining binding at 1 µM in [1] turned out to be 100%; in [2], 88%; in experiment [3] it was 32%; in experiment [4] it was 84%; in experiment [5], 100%; in experiment [6] (RPS6KA4 (Kin.Dom.1-N-terminal)), 85%. In addition, the remaining binding at 1 µM is 100% in experiment [6] (RPS6KA4 (Kin.Dom.2-C-terminal)); 4% in [7]; 15% in experiment [8]; 100% in [9]; 100% in experiment [10]; 58% in experiment [11]. For the same compound, the remaining binding at 1 µM in experiment [12] was 6%; in [13], 90%.
For `Cc1ccc(NC(=O)C2(C(=O)Nc3ccc(F)cc3)CC2)cc1C#Cc1cnc2c(Nc3cnn(C(C)C)c3)cccn12` [Example 78], the remaining binding at 1 µM in [1] turned out to be 100%; in experiment [2], 98%; in experiment [3], 100%; in experiment [4] it was 100%; in experiment [5], 100%; in [6] (RPS6KA4 (Kin.Dom.1-N-terminal)), 94%. For the same compound, the remaining binding at 1 µM in experiment [6] (RPS6KA4 (Kin.Dom.2-C-terminal)) turned out to be 78%; in experiment [7], 80%; in [8], 90%; in [9], 100%; in experiment [10] it was 92%; in [11], 100%. The remaining binding at 1 µM amounted to 88% in experiment [12] and 100% in [13].
